The numbers were not newly measured in US20150108064A1, “Production Of Channel Type Cyclodextrin Crystals” (Amphidex A/S, priority 2012, published 2015), which cites them from elsewhere.

The conditions of data set [1]: maximum safe concentration in the air, worker exposed daily.

On to `CCCO` [1-propanol], for which, in data set [1], the TLV was 200 ppm. Regarding `CC(C)=O` [Acetone], the TLV in data set [1] is 500 ppm.

Turning to `ClC(Cl)Cl` [Chloroform], the TLV in data set [1] was 10 ppm.

For the compound `C1CCCCC1` [Cyclohexane], the “Solubility in H2O” value is listed as 0.005 g/100 g. In addition, the TLV in data set [1] was 300 ppm.

As for `CCO` [Ethanol], the TLV in data set [1] is 1000 ppm. With `CCOC(C)=O` [Ethyl acetate], the “Solubility in H2O” value was 8.700 g/100 g. In addition, the TLV in data set [1] is 400 ppm. For `CCCCCCC` [Heptane], the TLV in data set [1] was 400 ppm. Turning to `CCCCCC` [Hexane], the “Solubility in H2O” value is given as 0.001 g/100 g. Also, the TLV in data set [1] is on record as 50 ppm. Turning to `CCCCC` [Pentane], the “Solubility in H2O” value was 0.004 g/100 g. Turning to `C1CCOC1` [THF, Tetrahydrofuran], the TLV in data set [1] is reported as 200 ppm.
